Reference: patent US9622987B2, “Synergistic pharmaceutical composition useful for the treatment of lung cancer” (Council of Scientific & Industrial Research, priority 2012, dated 2017)

Tested on: Lung Cancer cell Line (A-549)
Test: Cell death / viability of A549 lung cancer cells exposed to vapour (MTT, trypan blue)
Format: cell-based
Details: vapors of single compounds, 1:2000 dilution, 48 h, A549
Description: The lung cancer cell line, A-549 were cultured in DMEM (Dulbecco's Modified Eagle Medium) containing Earle's salts and non-essential amino acids supplemented with 10% fetal calf serum, penicillin (100 U/ml) and streptomycin (100 μg/ml) in a humidified 95% O2/5% CO2 atmosphere at 37° C. Confluent cells were subcultured by trypsinization and subsequently seeded in 6 well culture plates containing DMEM with essential supplements.
After CVp treatment, cells were washed with PBS, trypsinized and re-suspended in complete growth medium. Trypan blue (0.4%) was added to the cell suspension and both live and dead cells were counted using a heamocytometer.
Cell viability was determined by performing MTT assay (Chemicon, Temecula, Calif., USA) according to manufacturer's instructions. Briefly, cells were plated in 96 well plates. Overnight after cell plating, cells were incubated with CVp. Briefly, 10 μL of 3-(4,5-dimethylthiazol-2-yl)-2-5-diphenyl tetrazolium bromide (MTT) was added to each well for 4 h at 37° C. After solubilization in 100 μL 1(N) isopropanol/0.04(N) HCl, absorbance was read at 595 nm in microplate reader (Thermo Electron Corporation, MA, USA).
The vapors generated from each of these wells were exposed to cells at 1:2000 dilution for 48 h. […] We therefore used the vapor from these combined compounds which is henceforth termed as Combined Vapour (CVp=C2+C3+C4).

| SMILES | activity so far lung cancer cell death is concerned (FIG. 1C) |
| --- | --- |
| CC(C)=CCCC(C)CC=O (stereo not drawn) [Compound C1, Citronellal] | poor activity |
| CC(C)=CCCC(C)CCO (stereo not drawn) [Compound C4, Citronellol] | highest activity |

Same assay, conditions: vapour form; A-549

| SMILES | Activity in vapour form % of cell death for Lung Cancer cell Line (A-549) |
| --- | --- |
| CC(C)=CCCC(C)CC=O (stereo not drawn) [Compound C1, Citronellal] | 12.5 ± 3.6% |
| C=C(C)C1CCC(C)CC1O (stereo not drawn) [Compound C2, Neo-isopulegol] | 30.5 ± 5.0% |
| C=C(C)[C@@H]1CC[C@@H](C)C[C@H]1O [Compound C3, Isopulegol] | 36.0 ± 4.5% |
| CC(C)=CCCC(C)CCO (stereo not drawn) [Compound C4, Citronellol] | 70.0 ± 6.0% |
